Test results: patent US20070270350A1, “Methods and Compositions for the Prevention and Treatment of Inflammatory Diseases or Conditions” (MUSC FOUNDATION FOR RESEARCH DEVELOPMENT, priority 2003, published 2007)

Key:
iNOS = experiment: LPS-induced iNOS expression and iNOS promoter activity in primary astrocytes (AICAR); assay type: cell-based, rat
Description: Immunoblot Analysis: Cells were harvested in ice-cold lysis buffer (50 mM Tris-HCl, pH 7.4, containing 50 mM NaCl, 1 mM EDTA, 0.5 mM EGTA, 10% glycerol and protease inhibitor cocktail) and protein was estimated using Bradford reagent (Bio-Rad, USA). Fifty microgram of total protein/lane was separated by SDS-PAGE and blotted to nitrocellulose (Amersham Pharmacia Biotech). Blots were blocked for 1 h in 5% nonfat dry milk-TBS-0.1% Tween 20 and incubated overnight with primary antibody (1:1000) in 5% BSA-TBS-0.1% Tween 20 at 4° C. This was followed by incubation of 1 h with appropriate secondary peroxidase conjugated antibody (1:10,000, Sigma). Immunoreactivity was detected using the enhanced chemiluminescence detection method according to the manufacturer's instructions (Amersham Pharmacia Biotech) and subsequent exposure of the membrane to X-ray film. Antisense experiments: To decrease the levels of endogenous AMPK, astrocytes were pretreated for 48 h with 25 μm (of phosphothiorated antisense (AS) oligonucleotide ([NT]) directly against both the ? α1 and α2 ? subunits of AMPK (Culmsee et al., 2001) ? ? ? missense (MS) oligonucleotide ([NT]) was used in control cultures. Oligonucleotides were transfected with OligofectamineTM reagent as per manufacturer's instructions. Northern blot, gene array analysis and RT-PCR for cytokines expression: Total RNA was extracted with Trizol (Gibco) according to the manufacturer's protocol. Northern blot for iNOS was performed with 15 μg of RNA per reaction as described previously (Pahan et al., 1997). β-actin was used as control for RNA loading. Gene expression array for inflammatory cytokines (TNFα, IL-1β, IL-6 and IFN-γ) was used according to the manufacturer's protocol (Superarray). Signal quantitation was determined using imaging densitomter (Bio-Rad Lab, Hercules, Calif.). For RT-PCR, RNA was isolated from treated rat brain cerebral cortex by extracting in Trizol as above. cDNA was prepared from 5 μg of total RNA using poly dT as a primer and Moloney murine leukemia virus reverse transcriptase (Promega) as per manufacturer's instructions. 2 μl of cDNA was used to amplify the following products [given as product name, expected size, and forward (F) and reverse (R) primers used]: iNOS, 730 bp. ([NT]-1β, 623 bp. ([…]-α, 473 bp. ([…], 528 bp. […] Transcriptional assays: Primary astrocytes or microglial cell line (BV2) were transiently transfected with NF- ? B-or iNOS-luciferase reporter gene with ? -galactosidase in the presence or absence of dominant negative AMPKα2 or HA-IKK ? by lipofectamine-2000 (astrocytes) and lipofectamine-Plus (BV2, Invitrogen) according to the manufacturer instructions. pcDNA3 was used to normalize all groups to equal amounts of DNA. Luciferase activity was determined using a luciferase kit (Promega).

AMPK = experiment: Phosphorylation of AMPK and ACC in primary astrocytes (immunoblot); assay type: cell-based, rat
Description: Immunoblot Analysis: Cells were harvested in ice-cold lysis buffer (50 mM Tris-HCl, pH 7.4, containing 50 mM NaCl, 1 mM EDTA, 0.5 mM EGTA, 10% glycerol and protease inhibitor cocktail) and protein was estimated using Bradford reagent (Bio-Rad, USA). Fifty microgram of total protein/lane was separated by SDS-PAGE and blotted to nitrocellulose (Amersham Pharmacia Biotech). Blots were blocked for 1 h in 5% nonfat dry milk-TBS-0.1% Tween 20 and incubated overnight with primary antibody (1:1000) in 5% BSA-TBS-0.1% Tween 20 at 4° C. This was followed by incubation of 1 h with appropriate secondary peroxidase conjugated antibody (1:10,000, Sigma). Immunoreactivity was detected using the enhanced chemiluminescence detection method according to the manufacturer's instructions (Amersham Pharmacia Biotech) and subsequent exposure of the membrane to X-ray film.
Antisense experiments: To decrease the levels of endogenous AMPK, astrocytes were pretreated for 48 h with 25 μm (of phosphothiorated antisense (AS) oligonucleotide (5′ […]-3′) directly against both the ? α1 and α2 ? subunits of AMPK (Culmsee et al., 2001) ? ? ? missense (MS) oligonucleotide (5′ […]-3′) was used in control cultures. Oligonucleotides were transfected with Oligofectamine™ reagent as per manufacturer's instructions.
AMPK and IKKα/ ? assays: AMPK activity was assayed in primary rat astrocytes as described (Kim et al., 2001). […]

[1] = tested on: rat model of focal cerebral ischemia (MCAO); experiment: Focal cerebral ischemia model (20 min MCAO, reperfusion); assay type: in vivo; conditions: GSH up to 150 mg/kg body weight after the onset of ischemia
Description: Animals. A total of 60 male Sprague-Dawley rats (Charles River Laboratories, Wilmington, Mass.) weighing 250-300 g were used in this study. All animals received humane care in compliance with the Medical University of South Carolina's guidance and the National Research Council's criteria for humane care as outlined in ‘Guide for the Care and Use of Laboratory Animals’. Body temperature was monitored by a rectal probe and maintained at 37±0.5° C. by a homeothermic blanket control unit (Harvard Apparatus, Holliston, Mass.). Cranial temperature and mean arterial blood pressure were measured by HSE Plugsys TAM-D and TCAM (Harvard Apparatus) respectively.
Experimental design and administration of drugs. All animal procedures were approved by the Medical University of South Carolina Animal Review Committee and were in accordance with the guidelines for animal use published by the National Institute of Health. […]
Measurement of physiological variables. The physiological variables were measured before, during MCA occlusion, at reperfusion and 30 min after reperfusion. The rectal temperature was monitored and maintained at about 37 to 37.6° C. […]
Evaluation of ischemic infarct and neurological score. […] The infarct area, outlined in white, was acquired by image-analysis software (Photoshop 4.0 Adobe System) and measured by NIH image software. […]

[2] = X-ALD patients; cited from earlier work

## Nc1ncnc2c1c(I)cn2[C@@H]1O[C@H](CO)[C@@H](O)[C@H]1O [5-iodotubercidin]
iNOS; adenosine kinase inhibitor with AICAR and LPS, 24 h
  effect on inhibition induced by AICAR on iNOS protein expression: reverse the inhibition
AMPK; adenosine kinase inhibitor 0.1 μM, 30 min before AICAR 1 mM
  effect on AICAR induced phosphorylation of AMPK and ACC: blocked

## N[C@@H](CCC(=O)N[C@@H](CS)C(=O)NCC(=O)O)C(=O)O [GSH, gamma-glutamylcysteinylglycine]
[1]
  protective effect in ischemia: no protective effect

## 5′ CGCCCGTCGTCGTGCTTCTGC-3′ (phosphorothioate, further chemistry not given here) [antisense (AS), phosphothiorated antisense oligonucleotide against the α1 and α2 subunits of AMPK]
iNOS; AMPK antisense 25 μM, then LPS 1 μg/ml
  LPS mediated iNOS protein expression: significantly induced
AMPK; 25 μM antisense, 48 h
  catalytic subunit AMPKα1 level (immunoblot): decreased

## CCCCCCCC/C=C\CCCCCCCC(=O)OCC(COC(=O)CCCCCCC/C=C\CCCCCCCC)OC(=O)CCCCCCC/C=C\CCCCCCCC [trioleate]
[2]
  reduction of VLCFA: 50%
